According to PubChem BioAssay (NCI):
“And” between values parts separate entries of the source, which are not always exact repeats. Equal entries are not always repeated.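 Values below derive from 48-hour exposures of cells grown in 96-well plates, with endpoints linearly interpolated between the two concentrations bracketing the appropriate inhibition level. GI50 is the concentration that inhibits growth by half. At the TGI there is no net growth.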

Legend:
Experiment in all cases: NCI-60 cell line screen, 48 h
[1] = tested on: SN12C renal
[2] = tested on: ACHN renal
[3] = tested on: NCI-H23 lung
[4] = tested on: EKVX NSCLC
[5] = tested on: A549 NSCLC
[6] = tested on: K-562 leukemia
[7] = tested on: OVCAR-5 ovarian
[8] = tested on: HOP-62 NSCLC
[9] = tested on: LOX IMVI melanoma
[10] = tested on: DU-145 prostate
[11] = tested on: UACC-62 melanoma
[12] = tested on: NCI/ADR-RES ovarian
[13] = tested on: SF-295 CNS
[14] = tested on: M14 melanoma
[15] = tested on: NCI-H522 lung
[16] = tested on: SK-OV-3 ovarian
[17] = tested on: HCT-116 colon
[18] = tested on: MALME-3M melanoma
[19] = tested on: SW-620 colon
[20] = tested on: SK-MEL-28 melanoma
[21] = tested on: MDA-MB-435
[22] = tested on: TK-10 renal
[23] = tested on: HCT-15 colon
[24] = tested on: SF-268 CNS
[25] = tested on: UACC-257 melanoma
[26] = tested on: NCI-H226 lung
[27] = tested on: MDA-N
[28] = tested on: OVCAR-8 ovarian
[29] = tested on: MCF7 breast
[30] = tested on: HT29 colon
[31] = tested on: BT-549 breast
[32] = tested on: 786-0 renal
[33] = tested on: KM12 colon
[34] = tested on: OVCAR-4 ovarian
[35] = tested on: HCC-2998 colon
[36] = tested on: T-47D breast
[37] = tested on: COLO 205 colon
[38] = tested on: CAKI-1 renal
[39] = tested on: MDA-MB-231 breast
[40] = tested on: OVCAR-3 ovarian
[41] = tested on: RXF 393 renal
[42] = tested on: U251 CNS
[43] = tested on: UO-31 renal
[44] = tested on: A498 renal
[45] = tested on: HS 578T breast
[46] = tested on: HOP-92 NSCLC
[47] = tested on: MOLT-4 leukemia
[48] = tested on: IGROV1 ovarian
[49] = tested on: SR leukemia
[50] = tested on: RPMI-8226 leukemia
[51] = tested on: CCRF-CEM leukemia
[52] = tested on: SF-539 CNS
[53] = tested on: SNB-19 CNS
[54] = tested on: HL-60(TB) leukemia
[55] = tested on: SK-MEL-5 melanoma
[56] = tested on: SNB-75 CNS
[57] = tested on: SK-MEL-2 melanoma

## CC[C@H](C)[C@@H]([C@@H](CC(=O)N1CCC[C@H]1[C@H](OC)[C@@H](C)C(=O)NCCc1ccccc1)OC)N(C)C(=O)C(NC(=O)[C@H](C(C)C)N(C)C)C(C)C (stereo not given in full)
[1]
  TGI: 0.00499 µM and 0.00515 µM
[2]
  TGI: > 10 µM
[3]
  TGI: > 10 µM
[4]
  TGI: 7.57 µM
[5]
  TGI: 1.1 µM
[6]
  TGI: > 10 µM
[7]
  GI50: 0.000592 µM
  TGI: > 10 µM
[8]
  TGI: 3.02 µM
[9]
  TGI: > 10 µM
[10]
  TGI: 0.000963 µM
[11]
  TGI: > 10 µM
[12]
  TGI: > 10 µM
[13]
  GI50: 0.000281 µM
[14]
  TGI: 0.000855 µM
[15]
  TGI: 0.000434 µM
[16]
  GI50: 0.00047 µM
  TGI: 3.48 µM
[17]
  TGI: 0.0038 µM
[18]
  TGI: > 10 µM
[19]
  TGI: > 10 µM
[20]
  TGI: > 10 µM
[21]
  TGI: 0.000192 µM
[22]
  TGI: > 10 µM
[23]
  TGI: > 10 µM
[24]
  TGI: > 10 µM
[25]
  TGI: > 10 µM
[26]
  TGI: 0.00784 µM
[27]
  TGI: 0.000164 µM
[28]
  TGI: > 10 µM
[29]
  TGI: > 10 µM
[30]
  TGI: 0.00163 µM
[31]
  TGI: > 10 µM
[32]
  TGI: 1.34 µM
[33]
  TGI: 0.00178 µM
[34]
  TGI: > 10 µM
[35]
  TGI: 0.00228 µM
[36]
  TGI: > 10 µM
[37]
  TGI: 0.000267 µM
[38]
  TGI: > 10 µM
[39]
  TGI: 0.00271 µM
[40]
  TGI: 0.000544 µM
[41]
  TGI: > 10 µM
[42]
  TGI: 0.0068 µM
[43]
  TGI: > 10 µM
[44]
  TGI: > 10 µM

## Cc1ccc2[nH]c3c(c(=O)n(C)c(=O)n3C)c2c1
[1]
  TGI: > 100 µM
[2]
  TGI: > 100 µM
[3]
  TGI: > 100 µM
[4]
  TGI: > 100 µM
[45]
  TGI: > 100 µM
[46]
  TGI: > 100 µM
[5]
  TGI: > 100 µM
[6]
  TGI: > 100 µM
[7]
  TGI: > 100 µM
[47]
  TGI: > 100 µM
[8]
  TGI: > 100 µM
[9]
  TGI: > 100 µM
[10]
  TGI: > 100 µM
[48]
  TGI: > 100 µM
[11]
  TGI: > 100 µM
[12]
  TGI: > 100 µM
[13]
  TGI: > 100 µM
[49]
  TGI: > 100 µM
[14]
  TGI: > 100 µM
[15]
  TGI: > 100 µM
[16]
  TGI: > 100 µM
[17]
  TGI: > 100 µM
[18]
  TGI: > 100 µM
[50]
  TGI: > 100 µM
[19]
  TGI: > 100 µM
[21]
  TGI: > 100 µM
[22]
  TGI: > 100 µM
[23]
  TGI: > 100 µM
[24]
  TGI: > 100 µM
[25]
  TGI: > 100 µM
[51]
  TGI: > 100 µM
[26]
  TGI: > 100 µM
[27]
  TGI: > 100 µM
[28]
  TGI: > 100 µM
[52]
  TGI: > 100 µM
[29]
  TGI: > 100 µM
[30]
  TGI: > 100 µM
[31]
  TGI: > 100 µM
[32]
  TGI: > 100 µM
[33]
  TGI: > 100 µM
[53]
  TGI: > 100 µM
[54]
  TGI: > 100 µM
[34]
  TGI: > 100 µM
[55]
  TGI: > 100 µM
[35]
  TGI: > 100 µM
[36]
  TGI: > 100 µM
[37]
  TGI: > 100 µM
[56]
  TGI: > 100 µM
[38]
  TGI: > 100 µM
[39]
  TGI: > 100 µM
[42]
  TGI: > 100 µM
[43]
  TGI: > 100 µM
[44]
  TGI: > 100 µM
[57]
  TGI: > 100 µM
